Assay results taken from PubChem BioAssay (NCI).
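The compound was tested at five concentrations on cells cultured in 96-well plates, with a 48-hour exposure period. Definition used: TGI = concentration required for complete inhibition of growth.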

Legend:
Test in all cases: growth of human tumour cells (NCI), 48 h
IGROV1 ovarian = test system: IGROV1 ovarian
LXFL 529 NSCLC = test system: LXFL 529 NSCLC
M19-MEL melanoma = test system: M19-MEL melanoma
786-0 renal = test system: 786-0 renal
OVCAR-3 ovarian = test system: OVCAR-3 ovarian
SNB-19 CNS = test system: SNB-19 CNS
SK-MEL-28 melanoma = test system: SK-MEL-28 melanoma
HCC-2998 colon = test system: HCC-2998 colon
HOP-62 NSCLC = test system: HOP-62 NSCLC

Structure (SMILES) | TGI (IGROV1 ovarian) [µM] | TGI (LXFL 529 NSCLC) [µM] | TGI (M19-MEL melanoma) [µM] | TGI (786-0 renal) [µM] | TGI (OVCAR-3 ovarian) [µM] | TGI (SNB-19 CNS) [µM] | TGI (SK-MEL-28 melanoma) [µM] | TGI (HCC-2998 colon) [µM] | TGI (HOP-62 NSCLC) [µM]
COc1ccc(C2[C@@H](Cl)C(=O)N2c2ccc(OC)cc2)cc1 (stereo partly specified) | > 100 | > 100 | > 100 | > 100 | > 100 | > 100 | > 100 | > 100 | 
O=c1[nH]c(C2CCCCC2)nc2ccc(Cl)cc12 | > 100 | > 100 | > 100 | > 100 | > 100 | > 100 | > 100 | > 100 | 
OCC1OC(NO)C(O)C(O)C1O (stereo unspecified) | > 100 | > 100 | > 100 | > 100 | > 100 | > 100 | > 100 | > 100 | > 100
O=S(=O)(O)c1ccc([Se][Se]c2ccc(S(=O)(=O)O)cc2)cc1 | > 100 | > 100 | > 100 | > 100 | > 100 | > 100 | > 100 | > 100 | > 100
COc1ccc(NC(=O)CC2SC(=Nc3ccc(Cl)cc3C)NC2=O)c([N+](=O)[O-])c1 (stereo unspecified) | > 100 | > 100 | > 100 | > 100 | > 100 | > 100 | > 100 | > 100 | 
CCn1c(C)nc([N+](=O)[O-])c1Sc1ncc[nH]1 | > 100 | > 100 | > 100 | > 100 | > 100 | > 100 | > 100 | > 100 | > 100
O=S1c2ccccc2N=C(c2cccs2)CC1c1ccccc1O (stereo unspecified) | > 100 | > 100 | > 100 | > 100 | > 100 | > 100 | > 100 | > 100 | > 100
COc1ccc(/C=C2\CCC(C)(CN(C)C)C2=O)cc1Br (stereo unspecified) | 40.2 | 31.8 | 32.4 | 34.9 | 35.2 | 47.8 | 45.4 | 35.8 | 97
O=S1(=O)CC#CC[C@@H](CO)[C@@H](CO)CC#CC1 | > 100 | > 100 | > 100 | > 100 | > 100 |  | > 100 | > 100 | > 100
COC(=O)/C(=C1\OC(=O)C(c2ccc(Cl)cc2)=C1O)c1ccc(Cl)cc1 | > 100 | 87.7 | 66.2 | > 100 | 87.6 | 94.5 | > 100 | 86.5 | 41.4
O/N=C1/C(=C/c2ccc(Br)cc2)CCCC1C(NO)c1ccc(Br)cc1 (stereo unspecified) | 32.4 | 27.9 | 32.1 | 32.9 | 31.1 | 32 | 34.4 |  | 
O=Cc1cc2sc(C=O)cc2s1 | > 100 | > 100 | > 100 | > 100 | > 100 | > 100 |  | > 100 | > 100
CC1O[C@@H]2CCCCC(=O)[C@]2(C)[C@H]1C (stereo partly specified) | > 100 | > 100 | > 100 | > 100 | > 100 | > 100 | > 100 | > 100 | > 100
C/C(COc1ccccc1)=N\NC(N)=S | > 100 | > 100 | > 100 | > 100 | > 100 |  | > 100 | > 100 | > 100
CN1C(=O)CC(CC(=O)C2CCCCC2=O)CC1=O (stereo unspecified) | > 100 | > 100 | > 100 | > 100 | > 100 | > 100 | > 100 | > 100 | > 100
Clc1cc2ns[s+]c2cc1Cl | > 100 | > 100 | > 100 | > 100 | > 100 | > 100 | > 100 | > 100 | > 81.7
CC1=NN(c2ccccc2)C(=O)C1N=Nc1ccc(Br)cc1C (stereo unspecified) | > 100 | > 100 | > 100 | > 100 | > 100 | > 100 | > 100 | > 100 | > 100
Cc1c2cc[n+](C)cc2c(C)c2c1[nH]c1ccc(OC(C)(C)C)cc12 | > 100 | > 100 | > 100 | > 100 |  |  | > 100 | > 100 | > 100
O=C(NNC(=O)/C(=C/c1cccc([N+](=O)[O-])c1)NC(=O)c1ccccc1)Nc1ccc(Cl)cc1 | 27.4 | 23.5 | 29.1 | 29.1 | 25.4 | 30.8 | 30.8 | 25.8 | 29.6
